Earlier results in patent EP1019029B1, “MONOLITHIC SYSTEM CONTAINING ONE OR MORE DRUGS, CONSISTING OF THREE LAYERS WITH DIFFERENT RELEASE MECHANISMS” (CHIESI FARMACEUTICI S.p.A., priority 1997, dated 1999).
Read-outs that look alike come from different tables or passages of the source.

| Compound | water solubilities (at 37°C) [mg/mL] | water solubilities (at 20°C) [mg/mL] |
| --- | --- | --- |
| C[C@@](Cc1ccc(O)c(O)c1)(NN)C(=O)O [Carbidopa] | 2.5 | – |
| COC(=O)[C@@H](N)Cc1ccc(O)c(O)c1 [Levodopa methyl ester] | – | 500 |
